Measured values reported in article PMC8854749, “Celastrol Inhibits Canine Mammary Tumor Cells by Inducing Apoptosis via the Caspase Pathway” (Frontiers in Veterinary Science, 2022).

Key:
Assay type in all cases: cell-based, canine
[1] = tested on: CIPp cells; assay: Cell Counting Kit-8 (CCK-8) cell viability; settings: for IC50: Canis lupus familiaris, CCK-8
Method: (§1) CMT-7364, CIPp, and MDCK cells were plated in a 96-well plate with 2,000 cells per well and maintained in 5% CO2 at 37°C for 24 h until the cells adhered to the bottom. Then the medium was removed, the new media containing different concentrations (0, 0.1, 0.4, 0.6, 0.8, 1.2, and 1.6 μM) of celastrol were added, and incubated for 12, 24, 36, and 48 h. Ten microliters of the cell counting kit-8 (CCK-8) were added to each well for 1 h incubation. At each time point, the OD value was read by a microplate reader at 450 nm wavelength, and the cell viability with each drug concentration at different time points was calculated: cell relative viability=[(OD 450celastrol-OD 450blank) / (OD 450control-OD 450blank)] × 100%.

[2] = tested on: CMT-7364 cells; assay: Cell Counting Kit-8 (CCK-8) cell viability; settings: for IC50: Canis lupus familiaris, CCK-8
Method: as §1

[3] = tested on: MDCK cells; assay: Cell Counting Kit-8 (CCK-8) cell viability, non-tumor cell line; settings: for IC50: Canis lupus familiaris, MDCK cells (non-tumor canine cell line), CCK-8
Method: as §1

[4] = tested on: CIPp cells; assay: Cell invasion (transwell, Matrigel) assay
Method: (§2) The transwell chambers were placed in a 24-well cell culture plate, each well was plated with 100 μl serum-free medium containing 5% Matrigel on the upper chamber, and placed in incubator at 37°C for 2 h. The excess media were pipetted out of the upper chamber, 100 μl of cell suspension with or without celastrol treatment (0.3 μM or 0.9 μM) were added at a concentration of 1 × 10^4 cells/ml in each upper chamber; the lower chambers were filled with 600 μl medium containing 10% serum for each well. […] PBS was used to rinse the chambers for 2 min with 3 times repeated, then the cells were fixed with methanol for 10 min, followed by distilled water rinsed for 2 min with 3 times repeated. Finally, cells were dyed with 0.1% crystal violet at room temperature for 20 min, and washed with distilled water until the water is colorless. Images of cell invasion were taken with an inverted microscope, and the stained cells represented the invasion cells were counted by a cell counter to analyze the cell invasion rate. The relative invasion rate = (cell number celastrol /cell number control) × 100%.

[5] = tested on: CMT-7364 cells; assay: Cell invasion (transwell, Matrigel) assay
Method: as §2

[6] = tested on: CIPp cells; assay: Annexin V-FITC/PI apoptosis detection, fluorescence microscope; settings: 0.3 μM or 0.9 μM, 24 h, vs control group
Method: (§3) CMT-7364 and CIPp cells were seeded in a 6-well plate at a concentration of 1 × 10^5 cells/well, treated with different concentrations of celastrol (0, 0.3, 0.9 μM) for 24 h. Then cells were double-stained by Annexin V-FITC/PI, incubating at room temperature for 20 min in the dark, followed by observing with a fluorescence microscope. Green fluorescence represents Annexin V-FITC staining positive, and red fluorescence represents PI staining positive. Apoptotic cells were single-stained by green fluorescence, late apoptotic or necrotic cells were double-stained by green and red fluorescence, and normal cells were not stained by fluorescence. Finally, pictures of the cells were taken by a fluorescence microscope.

[7] = tested on: CMT-7364 cells; assay: as above; settings: 0.3 μM or 0.9 μM, 24 h, vs control group
Method: as §3

[8] = tested on: CIPp cells; assay: Annexin V-FITC/PI apoptosis flow cytometry; settings: 0.3 and 0.9 μM, 24 h, vs control group
Method: (§4) CMT-7364 and CIPp cells were seeded in a 6-well plate at a concentration of 1 × 10^5 cells/well, treated with different concentrations of celastrol (0, 0.3, and 0.9 μM) for 24 h. The cell culture medium was collected, the cells were washed once with PBS, digested with 0.25% trypsin, the cells were resuspended with the collected cell culture medium and kept after centrifugation. The cells were stained with Annexin V-FITC Apoptosis Detection Kit, and Guava easy Cyte5 (Merck millipore, United States) was used to detect the stained cells, and the data were analyzed by using Flow Jo software (version 10.0.7, United States).

[9] = tested on: CMT-7364 cells; assay: Annexin V-FITC/PI apoptosis flow cytometry; settings: 0.3 and 0.9 μM, 24 h, vs control group
Method: as §4

[10] = tested on: CIPp cells; assay: Western blot of apoptosis- and cell cycle-related proteins; settings: different concentrations, 24 h, Western blot
Method: (§5) The CMT-7364 and CIPp cells were treated with different concentrations of Caspase inhibitor Z-V-F and/or celastrol for 24 h, and the cells were lysed with RIPA lysis buffer on ice. The protein was extracted according to the manufacturer's instructions, and protein concentration was determined by the BCA protein concentration assay kit. The loading amount of 20 μg protein in each group was separated by 10% SDS-PAGE, the separated protein was transferred to polyvinylidene fluoride membrane. After blocking with 5% skimmed milk for 1 h, the membrane was washed two times with 0.5% PBS-Tween 20 (PBS-T), then the membrane with the primary antibody was incubated overnight in a shaker at 4°C. Primary antibodies include β-actin (1:2,000), p65 (1:1,000), NF-κB (1:1,000), Caspase-9 (1:1,000), Caspase-3 (1:1,000), Bax (1:2,000), Bcl-2 (1:1,000), Cyclin D1 (1:1,000), p21 (1:1,000), and p27 (1:1,000). After washing 3 times with PBS-T buffer for 10 min each time, the membrane was incubated with HRP-conjugated secondary antibody at 37°C for 30 min. Secondary antibodies include anti-mouse IgG antibody (1:5,000), anti-rabbit IgG antibody (1:2,000~1:4,000). The membrane was washed 3 times with PBS-T for 10 min each time. Finally, it was detected by an enhanced chemiluminescence detection system, and the results were quantified by ImageJ.

[11] = tested on: CMT-7364 cells; assay: as above; settings: different concentrations, 24 h, Western blot
Method: as §5

[12] = 0.9 μM, 24 h, relative to control
[13] = 0.3 and 0.9 μM, vs control group

In the case of `CC1=C(O)C(=O)C=C2C1=CC=C1[C@@]2(C)CC[C@@]2(C)[C@@H]3C[C@](C)(C(=O)O)CC[C@]3(C)CC[C@]12C` [celastrol, Celastrol], the cell viability ([1]; 0.1-1.6 μM, 12-48 h) is reported as “decreased the viability of the cells in a dose- and time-dependent manner”, the IC50 ([1]; 24 h) is reported as 1160 nM and the IC50 ([1]; 48 h) is reported as 968 nM. The proliferation ([1]; concentration <1.2 μM) was “significantly inhibited”, the cell viability ([2]; 0.1-1.6 μM, 12-48 h) was “decreased the viability of the cells in a dose- and time-dependent manner” and the IC50 ([2]; 24 h) was 1240 nM. The IC50 ([2]; 48 h) was 1010 nM, the proliferation ([2]; concentration <1.2 μM) was “significantly inhibited” and the IC50 ([3]; 24 h) was 1810 nM. For the same compound, the IC50 ([3]; 48 h) was 1860 nM, the proliferation ([3]; MDCK cells, concentration <1.2 μM) was “did not significantly inhibit” and the invasion rate [4, 12] was 32.00 ± 1.73%. The invasion ability [4, 13] was “inhibited the invasion ability of CMT-7364 and CIPp cells in a dose-dependent manner”, the invasion rate [5, 12] was 28.00 ± 1.53% and the invasion ability [5, 13] was “inhibited the invasion ability of CMT-7364 and CIPp cells in a dose-dependent manner”. For the same compound, the “green fluorescence (Annexin V-FITC, apoptotic cells)” value [6] was “increased”, the “green fluorescence (Annexin V-FITC, apoptotic cells)” value [7] was “increased” and the “percentages of early and late apoptotic cells” value [8] was “increased in a dose-dependent manner”. The “percentages of early and late apoptotic cells” value [9] was “increased in a dose-dependent manner”, the “protein expression level of Bax” value [10] was “significantly up-regulated” and the “protein expression level of Bcl-2” value [10] was “significantly down-regulated”. For the same compound, the “protein expression level of Cleaved-Caspase-3” value [10] was “significantly up-regulated”, the “protein expression level of Cleaved-Caspase-9” value [10] was “significantly up-regulated” and the “protein expression level of Cyclin D1” value [10] was “down-regulated”. For the same compound, the “protein expression level of NF-kB” value [10] was “significantly down-regulated”, the “protein expression level of p21” value [10] was “up-regulated” and the “protein expression level of p27” value [10] was “up-regulated”. The “protein expression level of phosphorylated p65” value [10] was “significantly down-regulated”, the “protein expression level of Bax” value [11] was “significantly up-regulated” and the “protein expression level of Bcl-2” value [11] was “significantly down-regulated”. The “protein expression level of Cleaved-Caspase-3” value [11] was “significantly up-regulated”, the “protein expression level of Cleaved-Caspase-9” value [11] was “significantly up-regulated” and the “protein expression level of Cyclin D1” value [11] was “down-regulated”. The “protein expression level of NF-kB” value [11] was “significantly down-regulated”, the “protein expression level of p21” value [11] was “up-regulated” and the “protein expression level of p27” value [11] was “up-regulated”. The “protein expression level of phosphorylated p65” value [11] was “significantly down-regulated”.
